# Laboratory results reported in US9234176B2, “Chemically defined production of cardiomyocytes from pluripotent stem cells” (The Board of Trustees of the Leland Stanford Junior …, priority 2012, dated 2016).
# Assays:
# hPSC = test: Directed cardiac differentiation of hPSC in minimal media (Example 1); format: cell-based, human; conditions: for inducing cardiac differentiation (GSK-3β inhibitors, Wnt signaling agonists): BIO 2-5 μM, CHIR-99021 4-10 μM; for Wnt signaling antagonist effective for cardiac differentiation: at a concentration of 5 μM; for further enhancement of differentiation by pathway inhibitors: small molecule inhibitors at the later stage of differentiation
# Protocol: Directed Cardiac Differentiation Procedure. (volumes provided are for a T25 flask; adjust volumes proportionately for larger vessels) Day 0 (day 4 after passage): Aspirate medium, and replace with 5 mL of minimal media (CDM3, D3, D4, or D11) supplemented with 6 uM of CHIR-99021 (CHIR-99021 can be used at 4-15 μM). Place flasks in a regular ambient O2, 5% CO2 incubator. Day 2: 48 h. Aspirate media and replace with 5 mL of minimal media (CDM3, D3, D4, or D11). Day 3: 72 h. Aspirate media and replace with 5 mL of minimal media (CDM3, D3, D4, or D11) supplemented with 0.5 uM C59 (C59 may be used at 0.5-5 μM). Day 5: Aspirate media and replace with 5 mL of minimal media (CDM3, D3, D4, or D11). From day 5 onwards media should be changed every 2 days with minimal media (CDM3, D3, D4, or D11).
# From day 0 to day 2 (d0-d2), minimal media (CDM3, D3, D4, or D11) was supplemented with the Wnt signaling agonist CHIR-99021 (6-10 uM 48 h, d0-d2), which triggers canonical Wnt/β-Catenin signaling that leads to the subsequent up-regulation of BMP4 and activin A. Media is then exchanged to non-supplemented minimal media (CDM3, D3, D4, or D11) for 1 day followed by contact with a Wnt signaling antagonist (e.g., C59: 0.5-5 uM, 48 h, d3-d5) for 2 days. At day 5, 7, and 9 minimal media (CDM3, D3, D4, or D11) is exchanged for fresh media, and contraction begins between d7 and d10. At day 11, media is exchanged to a variant of minimal media (CDM3, D3, D4, or D11) without […] that results in the depletion of non-cardiomyocytes due to a lack of glycogen stores. Media was exchanged on day 13 for fresh media lacking glucose. At day 15, media was exchanged for fresh minimal media (CDM3, D3, D4, or D11) (containing glucose).
# The presence of cardiomyocytes was verified in a number of different ways, for example: flow cytometry of cells contacted with an antibody specific for a cardiomyocyte marker (TNNT2); imaging of cells stained with antibodies specific for α-Sarcomeric actin (red) and Troponin T (TNNT2); electrophysiological profiling; and evaluating responsiveness to known cardioactive drugs (e.g., Norepinephrine). Assays performed on multiple different cell lines (including several hESC lines and over 30 hiPSC lines) confirmed that the subject methods are highly consistent and highly efficient, as very little variability was observed among the different cell lines.
# hiPSC = test: Analysis of components of defined media for hiPSC cardiac differentiation (contraction score); format: cell-based, human; design: 9 components subtracting: cardiac differentiation score / 2 components subtracting: cardiac differentiation score: scale not given here
# Text: Development of a Chemically Defined Cardiac Differentiation Platform. We first generated eleven pluripotent hiPSC lines under chemically defined conditions (FIG. 7) on a chemically synthesized vitronectin peptide substrate, with nonenzymatic passaging (FIG. 8). […] To formulate a chemically defined differentiation protocol, we concentrated on the observation that three unrelated media formations are capable of supporting growth factor-based monolayer cardiac differentiation: RPMI+B27-ins, supplemented StemPro-34, and LI-APEL (Table 5). […] Beginning with the 21 components of B27, we subtracted one component at a time and assessed for continued high efficiency differentiation (Table 6a-c) and also assessed components from two other two media (supplemented StemPro-34 and LI-APEL) that yielded benefits (Table 6d-f). We concluded that hiPSC cardiac differentiation was successful in a media consisting of […]: RPMI 1640 basal medium, L-ascorbic acid 2-phosphate (AA 2-P), and BSA (Table 6g).
# Other additions to cardiac differentiation media tested were 10.7 μg/mL recombinant human transferrin, […], 1 μg/mL linoleic acid, 1 μg/mL linolenic acid, 2 ng/mL triiodo-l-thyronine, 2 μg/mL L-carnitine, 1 μg/mL D,L-alpha-tocopherol acetate, 100 ng/mL retinol acetate, 1 μg/mL ethanolamine, 20 ng/mL corticosterone, 9 ng/mL progesterone, 47 ng/mL lipoic acid, 100 ng/mL retinol, 1 μg/mL D,L-alpha-tocopherol, 100 ng/mL biotin, 2.5 ug/mL catalase, 2.5 μg/mL glutathione, 2.5 μg/mL superoxide dismutase, 2 μg/mL L-carnitine, 15 μg/mL D(+)-galactose, 16.1 μg/mL putrescine, 450 μM 1-thioglycerol, 55 μM 2-mercaptoethanol, 64 μg/mL L-ascorbic acid 2-phosphate (all from Sigma-Aldrich).
# hiPSCs = test: Cardiac differentiation of hiPSCs in CDM3, optimisation of media and small molecules (TNNT2 flow cytometry); format: cell-based; conditions: for cell death / toxicity of GSK3B inhibitors: in CDM3, FIG. 10g; for inducing cardiac differentiation (GSK3B inhibitors): in CDM3, FIG. 10g-h; for timing of Wnt signaling modulation for cardiac differentiation efficiency: CHIR99021 for 2 days followed by Wnt-C59 for 2 days, in CDM3
# Protocol: Cardiac differentiation of hiPSCs. hiPSCs and hESCs (>p20) were split at 1:10 or 1:12 ratios using EDTA as above and grown for 4 days at which time they reached ˜85% confluence. Media was changed to CDM3, consisting of RPMI 1640 (11875, Life Technologies), 495 μg/mL Oryza sativa-derived recombinant human albumin (A0237, Sigma-Aldrich, 75 mg/mL stock solution in dH2O, stored at −20° C.), 213 μg/mL L-ascorbic acid 2-phosphate (Sigma-Aldrich, 64 mg/mL stock solution in dH2O, stored at −20° C.). Media was changed every other day (48 h). For d0-d2, media was supplemented with 6 μM CHIR99021 (LC Laboratories, Woburn, Mass., USA). On d2, media was change to CDM3 supplemented with […] Wnt-C59 (Cellagentech, San Diego, Calif., USA). Media was changed on d4 and every other day for CDM3.
# Wnt inhibitors assessed were IWP-2, IWR-1 (Sigma-Aldrich), XAV-939, ICG-001 (Selleck Chemicals), IWP-4 (Stemgent, Cambridge, Mass., USA), and Wnt-C59 (Cellagentech). GSK3B inhibitors assessed were CHIR99021 (LC Laboratories), BIO, TWS119 (Selleck Chemicals), 1-azenkenpaullone, TDZD-8, ARA014418, and 3F8 (all Sigma-Aldrich). Inhibitors used for pathway analysis were PD173074, SB203580, LDN193189, SB431542 (all Selleck Chemicals), SU5402, Dorsomorphin, A83-01 (Tocris, Bristol, UK), ALK5 inhibitor (Stemgent), and ITD-1 (Xcessbio, San Diego, Calif., USA). All small molecules were re-suspended to 10 mM in dimethyl sulfoxide (DMSO).
# Flow cytometry. For optimization of cardiac differentiation conditions, cells were cultured in 12-well plates. For analysis of cardiomyocyte differentiation efficacy and subtype specification, expression of TNNT2, MLC2A and MLC2V was analyzed by flow cytometry. At d14-15 of differentiation, the entire well was dissociated with TrypLE Express for 10 min at 37° C. and transferred to flow cytometry tubes (BD Biosciences). Cells were then fixed with 1% PFA for 15 min, permeabilized with 90% methanol for 15 min and stained using 1:200 mouse monoclonal IgG1 TNNT2 (13-11, Thermo Scientific), 1:400 mouse monoclonal IgG2b MLC2A (MYL7, Synaptic Systems) and 1:200 rabbit polyclonal IgG MLC2V (MYL2, ProteinTech) for 45 min at RT. Secondary staining was performed with 1:1000 Alexa Fluor 488 goat anti-mouse IgG1, 1:1000 Alexa Fluor 488 goat anti-rabbit IgG (H+L), 1:1000 Alexa Fluor 647 goat anti-mouse IgG2b and 1:1000 Alexa Fluor 647 goat anti-rabbit IgG (H+L) secondary antibodies for 20 min. […] Cells were analyzed using a FACSAria II (BD Biosciences) with a […] and FACSDiva software. Data were analyzed using FlowJo 8.7 (Tree Star).
smiles,measurement,setting,value
OCC(O)CS (stereo not drawn) [1-thioglycerol],effect of addition on differentiation,"hPSC; addition d0-d2, PVA 0.4%",severely limited rather than enhanced differentiation
same,9 components with the addition of: cardiac differentiation score,hiPSC; d) addition of components from the other media formulae of Table 5,0
"O=C1O[C@H]([C@@H](O)CO)C(O)=C1OP(=O)(O)O [AA 2-P, L-ascorbic acid 2-phosphate]",9 components with the addition of: cardiac differentiation score,hiPSC; d) component at 10 x concentration,+++ (>75% contraction)
same,9 components (with 4 at 10x) subtracting: cardiac differentiation score,"hiPSC; e) third medium with increased concentrations, each component subtracted",0
same,6 components subtracting: cardiac differentiation score,"hiPSC; f) fourth 6-component medium, each component subtracted",0
same,2 components subtracting: cardiac differentiation score,"hiPSC; g) final 3-component medium (RPMI 1640, BSA, 10 x L-ascorbic acid 2-phosphate), component subtracted",0
same,effect of omitting the component from the differentiation medium,hiPSCs; medium without AA 2-P (FIG. 10a),total cell death
"O=C1Nc2cc(Br)ccc2/C1=C1/Nc2ccccc2/C1=N\O [BIO, 6-bromo-3-[(3E)-1,3-dihydro-3-(hydroxyimino)-2H-indol-2-ylidene]-1,3-dihydro-(3Z)-2H-indol-2-one]","inducing cardiac differentiation (GSK-3β inhibitors, Wnt signaling agonists)",hPSC,successful at inducing cardiac differentiation
same,cell death / toxicity of GSK3B inhibitors,hiPSCs,did not cause total cell death
same,inducing cardiac differentiation (GSK3B inhibitors),hiPSCs,successful at inducing any suitable cardiac differentiation
Cc1cc(-c2ccc(CC(=O)Nc3ccc(-c4cccnc4)cc3)cc2)ccn1 [C59],Wnt signaling antagonist effective for cardiac differentiation,hPSC,effective
same,timing of Wnt signaling modulation for cardiac differentiation efficiency,hiPSCs,optimal
"Cc1cnc(-c2cnc(NCCNc3ccc(C#N)cn3)nc2-c2ccc(Cl)cc2Cl)[nH]1 [CHIR-99021, 6-[[2-[[4-(2,4-dichlorophenyl)-5-(5-methyl-1H-imidazol-2-yl)-2-pyrimidinyl]amino]ethyl]amino]-3-pyridinecarbonitrile]","inducing cardiac differentiation (GSK-3β inhibitors, Wnt signaling agonists)",hPSC,successful at inducing cardiac differentiation
same,timing of Wnt signaling modulation for cardiac differentiation efficiency,hiPSCs,optimal
same,cell death / toxicity of GSK3B inhibitors,hiPSCs,did not cause total cell death
same,inducing cardiac differentiation (GSK3B inhibitors),hiPSCs,successful at inducing any suitable cardiac differentiation
"O=C(Nc1cccc2cccnc12)c1ccc(N2C(=O)C3C4C=CC(C4)C3C2=O)cc1 (stereo not drawn) [IWR-1, 4-(1,3,3a,4,7,7a-Hexahydro-1,3-dioxo-4,7-methano-2H-isoindol-2-yl)-N-8-quinolinyl-Benzamide]",Wnt signaling antagonist effective for cardiac differentiation,hPSC,effective
c1ccc2c(-c3cnn4cc(-c5ccc(N6CCNCC6)cc5)cnc34)ccnc2c1 [LDN193189],further enhancement of differentiation by pathway inhibitors,hPSC,did not further enhance the differentiation
c1ccc(-c2[nH]ncc2-c2ccnc3ccccc23)nc1 [LY364947],further enhancement of differentiation by pathway inhibitors,hPSC,did not further enhance the differentiation
C[S+]([O-])c1ccc(-c2nc(-c3ccncc3)c(-c3ccc(F)cc3)[nH]2)cc1 (stereo not drawn) [SB203580],further enhancement of differentiation by pathway inhibitors,hPSC,did not further enhance the differentiation
"O=c1[nH]c(-c2ccc(C(F)(F)F)cc2)nc2c1CSCC2 [XAV939, 3,5,7,8-Tetrahydro-2-[4-(trifluoromethyl)phenyl]-4H-thiopyrano[4,3-d]pyrimidin-4-one]",Wnt signaling antagonist effective for cardiac differentiation,hPSC,effective
